Laboratory results from patent US10385069B2, “Imidazo[2,1-B]thiazole and 5,6-dihydroimidazo[2,1-B]thiazole derivatives useful as S100-inhibitors” (Active Biotech AB, priority 2015, dated 2019).

Each molecule was assayed against T1, interaction between biotinylated human S100A9 and human RAGE-Fc (Homo sapiens, UniProt P06702) (assay: AlphaScreen inhibition assay, biot-hS100A9:hRAGE-Fc). Details: biot-hS100A9 pre-incubated with compound 1 h, assay buffer with CaCl2 and ZnCl2.
T1 construct: made in house; host or cells: E. coli
T1 sequence (P06702 1-114): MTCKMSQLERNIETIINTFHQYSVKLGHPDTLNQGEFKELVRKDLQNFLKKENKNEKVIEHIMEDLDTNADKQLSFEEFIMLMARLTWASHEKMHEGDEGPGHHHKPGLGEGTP
Type: binding
From the text: Inhibition Assay, Biot-hS100A9:hRAGE-Fc
The AlphaScreen (Amplified Luminescent Proximity Homogeneous Assay) contains two types of beads, Alpha Donor beads and Acceptor beads (PerkinElmer). Upon laser excitation at 680 nm a photosensitizer in the Donor bead converts ambient oxygen to a more excited singlet state. The singlet oxygen molecule diffuses (maximum 200 nm) to react with a thioxene derivative in the Acceptor bead and generates a chemiluminescence reaction. Fluorophores in the Acceptor bead subsequently emit light at 520-620 nm which can be detected in the EnVision® Multilabel plate Reader (PerkinElmer). The beads are light sensitive and all work with the beads is performed under subdued light conditions or using green filters on light sources (Roscolux Chroma Green #389, Rosco).
In the AlphaScreen Inhibition Assay described here, protein A (Staphylococcus aureus) conjugated Acceptor beads are used together with streptavidin coated Donor beads (Perkin Elmer 6760617M). The Acceptor beads are pre-incubated with Fc-tagged recombinant human RAGE (rhRAGE-Fc) allowing binding of the rhRAGE-Fc to protein A on the beads. Biotinylated human S100A9 (biot-hS100A9) is pre-incubated with the low molecular test compounds. The pre-mixes are then added to the wells of a micro-plate and incubated allowing interaction between biot-hS100A9 and rhRAGE-Fc. Subsequent addition of streptavidin coated Donor beads causes binding of the streptavidin to the biotinylated hS100A9. After an additional incubation the signal is measured.
Without inhibitory compounds, the interaction of biot-hS100A9 to rhRAGE-Fc will bring the Acceptor and Donor beads in close proximity thus generating a high signal. With an inhibitor present the complex will not form resulting in a decreased signal. The assay is illustrated in FIG. 1.
Chemicals and Reagents. • AlphaScreen® General IgG (Protein A) Detection Kit, (PerkinElmer 6760617M) • HBS-P buffer (GE Healthcare, BR-1003-68) • HBS-N buffer (GE Healthcare, BR-1003-69) • CaCl2 in HBS-P • ZnCl2 in Milli-Q water • DMSO • Biotinylated hS100A9, (biotinylated via cystein by EZ-link Iodoacetyl-PEG2-Biotin reagent (Pierce no. 21334), in HBS-N • rhRAGE-Fc (R&D Systems, 1145-RG-50), in HBS-P
The AlphaScreen assay method is used for screening of the inhibitory effect of different compound samples at fixed concentrations or for IC50 determination by varying the compound concentrations. Samples of test compounds and references are prepared from solutions in DMSO. Relevant reference inhibitors and DMSO are used as controls for defined inhibition and non-inhibition, respectively in the assay. The percent inhibition in assay for test compounds and references are calculated by comparing their obtained assay signals with the signal values for the control with only DMSO (no compound).
Assay concentration of biotinylated hS100A9 and rhRAGE-Fc are batch dependent, and are determined and defined by separate cross-titration experiments using this AlphaScreen inhibition method to verify the optimal setup regarding signal strength and achievement of a defined inhibition with relevant reference compounds. The Final assay concentrations of Acceptor and Donor beads are 20 μg/mL.
Assay buffer is prepared by adding CaCl2 and ZnCl2 to HBS-P and is used freshly prepared in the experiment.
Biotin-hS100A9 solution for the experiment is prepared by dilution of appropriate amount of stock solution biot-hS100A9 in assay buffer (with CaCl2 and ZnCl2) and incubation in room temperature for 30 minutes.
rhRAGE-Fc solution for the experiment is prepared by dilution appropriate amount of rhRAGE-Fc stock in assay buffer.
Protein A Acceptor beads are diluted in assay buffer and are added to an equal volume of the prepared diluted rhRAGE-Fc solution. The beads are light sensitive. The vial is covered with aluminum foil and incubated at room temperature in the dark until biot-hS100A9+compound incubation is finished (see below). […]

IC50 [nM]	Compound
390	C[C@@]1(C(=O)O)CN2C(=N1)Sc1c2ccc(F)c1Cl (single isomer, unassigned) [Example 279b]
720	O=C(O)Cc1cn2c(n1)sc1c(Cl)c(Cl)ccc12 [Example 19, 2-{9,10-Dichloro-7-thia-2,5-diazatricyclo[6.4.0.0^2,6]dodeca-1(8),3,5,9,11-pentaen-4-yl}acetic acid]
740	C#Cc1c(C(=O)O)nc2sc3c(n12)CC(C)(C)CC3(C)C [Example 229, 3-Ethynyl-9,9,11,11-tetramethyl-7-thia-2,5-diazatricyclo[6.4.0.0^2,6]dodeca-1(8),3,5-triene-4-carboxylic acid]
1490	CN1CCN(Cc2c(C(=O)O)nc3sc4c(n23)CCC(C(C)(C)C)C4)CC1 (centres unmarked) [Example 273, 10-tert-Butyl-3-[(4-methylpiperazin-1-yl)methyl]-7-thia-2,5-diazatricyclo[6.4.0.0^2,6]dodeca-1(8),3,5-triene-4-carboxylic acid]
1300	O=C(O)[C@@H]1CN2C(=N1)Sc1c2ccc(F)c1Cl (single isomer, unassigned) [Example 236]
840	CC1CCCc2c1sc1nc(C(=O)O)cn21 (centres unmarked) [Example 44, 9-Methyl-7-thia-2,5-diazatricyclo[6.4.0.0^2,6]dodeca-1(8),3,5-triene-4-carboxylic acid]
700	O=C(O)c1cn2c(n1)sc1c(Br)cccc12 [Example 212, 9-Bromo-7-thia-2,5-diazatricyclo[6.4.0.0^2,6]dodeca-1(8),3,5,9,11-pentaene-4-carboxylic acid]
420	CN(C)c1c(C(=O)O)nc2sc3c(n12)CC(C)(C)CC3(C)C [Example 280, 3-(Dimethylamino)-9,9,11,11-tetramethyl-7-thia-2,5-diazatricyclo[6.4.0.0^2,6]dodeca-1(8),3,5-triene-4-carboxylic acid]
960	CC(C)(C)c1ccc2c(c1)sc1nc(C(=O)O)cn12 [Example 206, 10-tert-Butyl-7-thia-2,5-diazatricyclo[6.4.0.0^2,6]dodeca-1(8),3,5,9,11-pentaene-4-carboxylic acid]
1020	O=C(O)c1cn2c(n1)sc1c(F)c(F)ccc12 [Example 209, 9,10-Difluoro-7-thia-2,5-diazatricyclo[6.4.0.0^2,6]dodeca-1(8),3,5,9,11-pentaene-4-carboxylic acid]
5020	Cc1ccc2c(c1)sc1nc(C(=O)O)cn12 [Example 11, 10-Methyl-7-thia-2,5-diazatricyclo[6.4.0.0^2,6]dodeca-1(8),3,5,9,11-pentaene-4-carboxylic acid]
200	O=C(O)c1nc2sc3c(Cl)c(F)ccc3n2c1N1CCOCC1 [Example 238, 9-Chloro-10-fluoro-3-(morpholin-4-yl)-7-thia-2,5-diazatricyclo[6.4.0.0^2,6]dodeca-1(8),3,5,9,11-pentaene-4-carboxylic acid]
780	CN(C)Cc1c(C(=O)O)nc2sc3c(Cl)c(Cl)ccc3n12 [Example 203, 9,10-Dichloro-3-[(dimethylamino)methyl]-7-thia-2,5-diazatricyclo[6.4.0.0^2,6]dodeca-1(8),3,5,9,11-pentaene-4-carboxylic acid]
1060	CN1CCN(c2c(C(=O)O)nc3sc4c(n23)CC(C)(C)CC4(C)C)CC1 [Example 288, 9,9,11,11-Tetramethyl-3-(4-methylpiperazin-1-yl)-7-thia-2,5-diazatricyclo[6.4.0.0^2,6]dodeca-1(8),3,5-triene-4-carboxylic acid]
640	CC(C)(C)C1CCc2c(sc3nc(C(=O)NC#N)cn23)C1 (centres unmarked) [Example 58, 10-tert-Butyl-N-cyano-7-thia-2,5-diazatricyclo[6.4.0.0^2,6]dodeca-1(8),3,5-triene-4-carboxamide]
170	O=C(NS(=O)(=O)CCCO)c1cn2c(n1)sc1c(Cl)c(Cl)ccc12 [Example 28, 9,10-Dichloro-N-(3-hydroxypropanesulfonyl)-7-thia-2,5-diazatricyclo[6.4.0.0^2,6]dodeca-1(8),3,5,9,11-pentaene-4-carboxamide]
290	O=C(O)c1cn2c(n1)sc1c(Cl)c(C3CC3)ccc12 [Example 252, 9-Chloro-10-cyclopropyl-7-thia-2,5-diazatricyclo[6.4.0.0^2,6]dodeca-1(8),3,5,9,11-pentaene-4-carboxylic acid]
490	CC(C)(C)C1CCc2c(sc3nc(C(=O)NS(=O)(=O)CCCN4CCOCC4)cn23)C1 (centres unmarked) [Example 51, 10-tert-Butyl-N-[3-(morpholin-4-yl)propanesulfonyl]-7-thia-2,5-diazatricyclo[6.4.0.0^2,6]dodeca-1(8),3,5-triene-4-carboxamide]
170	C[C@]1(C(=O)O)CN2C(=N1)Sc1c2ccc(F)c1Cl (single isomer, unassigned) [Example 279a]
460	CC(C)(C)Nc1c(C(=O)O)nc2sc3c(n12)CCC(C(C)(C)C)C3 (centres unmarked) [Example 40, 10-tert-Butyl-3-(tert-butylamino)-7-thia-2,5-diazatricyclo[6.4.0.0^2,6]dodeca-1(8),3,5-triene-4-carboxylic acid]
1360	CCN(CC)CCCS(=O)(=O)NC(=O)c1cn2c3c(sc2n1)C(C)(C)CC(C)(C)C3 [Example 54, N-[3-(Diethylamino)propanesulfonyl]-9,9,11,11-tetramethyl-7-thia-2,5-diazatricyclo[6.4.0.0^2,6]dodeca-1(8),3,5-triene-4-carboxamide]
680	O=C(O)[C@H]1CN2C(=N1)Sc1c2ccc(F)c1Cl (single isomer, unassigned) [Example 237]
1030	CC(C)(C)Nc1c(C(=O)O)nc2sc3cc(OC(F)(F)F)ccc3n12 [Example 18, 3-(tert-Butylamino)-10-(trifluoromethoxy)-7-thia-2,5-diazatricyclo[6.4.0.0^2,6]dodeca-1(8),3,5,9,11-pentaene-4-carboxylic acid]
670	CC1(C(=O)O)CN2C(=N1)Sc1c2ccc(F)c1Cl (centres unmarked) [Example 250, 9-Chloro-10-fluoro-4-methyl-7-thia-2,5-diazatricyclo[6.4.0.0^2,6]dodeca-1(8),5,9,11-tetraene-4-carboxylic acid]
490	CC(C)(C)C1CCc2c(sc3nc(C(=O)O)c(NS(C)(=O)=O)n23)C1 (centres unmarked) [Example 196, 10-tert-Butyl-3-methanesulfonamido-7-thia-2,5-diazatricyclo[6.4.0.0^2,6]dodeca-1(8),3,5-triene-4-carboxylic acid]
290	CSc1c(C(=O)O)nc2sc3c(n12)CC(C)(C)CC3(C)C [Example 292, 9,9,11,11-Tetramethyl-3-(methylsulfanyl)-7-thia-2,5-diazatricyclo[6.4.0.0^2,6]dodeca-1(8),3,5-triene-4-carboxylic acid]
360	O=C(O)c1cn2c3c(sc2n1)-c1ccccc1CC3 [Example 41, 16-Thia-11,14-diazatetracyclo[8.6.0.0^2,7.0^11,15]hexadeca-1 (10),2(7),3,5,12,14-hexaene-13-carboxylic acid]
780	CC1(C)Cc2c(sc3nc(C(=O)O)c(Cl)n23)C(C)(C)C1 [Example 207, 3-Chloro-9,9,11,11-tetramethyl-7-thia-2,5-diazatricyclo[6.4.0.0^2,6]dodeca-1(8),3,5-triene-4-carboxylic acid]
600	CC1(C)Cc2c(sc3nc(C(=O)O)c(CN4CCOCC4)n23)C(C)(C)C1 [Example 246, 9,9,11,11-Tetramethyl-3-(morpholin-4-ylmethyl)-7-thia-2,5-diazatricyclo[6.4.0.0^2,6]dodeca-1(8),3,5-triene-4-carboxylic acid]
